Assay results: patent publication US20030187267A1, “Novel 1,2,3,4-tetrahydroisoquinoline, their preparation method and their use as fungicides” (priority 2000, published 2003)

System: Candida Albicans 44858
Assay: Antifungal activity in mice infected intravenously with Candida Albicans 44858 (dead mice counted)
Type: in vivo
Settings: female mice, 106 CFU per mouse into the tail vein
Description: Antifungal activity of the product of Example 1 or product P.
Female mice were used weighing 18 to 22 g. A quantity of Candida Albicans 44858 at a rate of 10^6 CFU per mouse (CFU: colony forming unit) is administered into the vein of the tail. The mice are separated into 5 batches of 5 mice and they are treated as follows:
group 1: the mice are treated with product P 25 mg/kg by oral route
group 2: the mice are treated with product P by intraperitoneal route at a rate of 25 mg/kg
group 3: the mice are treated with fluconazole (25 mg/kg by oral route).
group 4: the mice are treated with fluconazole (25 mg/kg by intraperitoneal route).
group 5: the mice receive no antifungal treatment.
For a period of 22 days, the dead mice are counted.

With `CCC(C)n1ncn(-c2ccc(/C=C/CN3CCc4cc(OC[C@H]5CO[C@](Cn6ccnc6)(c6ccc(Cl)cc6Cl)O5)ccc4C3)cc2)c1=O` (relative stereo) [Example 1, 2,4-dihydro-4-[4-[3-[6-[[(cis)-2-(2,4-dichlorophenyl)-2-(1H-imidazol-1-ylmethyl)-1,3-dioxolan-4-yl]-methoxy]-1,2,3,4-tetrahydro-2-isoquinolinyl]-1(E)-propenyl]-phenyl]-2-(1-methylpropyl)-3H-1,2,4-triazol-3-one.] the “Antifungal activity (dead mice counted for a period of 22 days)” value (25 mg/kg by intraperitoneal route 1 hour after infection) was “excellent activity” and the “Antifungal activity (dead mice counted for a period of 22 days)” value (25 mg/kg by oral route 1 hour after infection) was “excellent activity”.
